From ChEMBL document CHEMBL1154793, “The lecanindoles, nonsteroidal progestins from the terrestrial fungus Verticillium lecanii 6144” (J Nat Prod, 2009) come the findings set out here.

pIC50: −log10 of the molar value.

For test [1], the target named is T1, Progesterone receptor (Homo sapiens, UniProt P06401).
T1 sequence (P06401 whole entry): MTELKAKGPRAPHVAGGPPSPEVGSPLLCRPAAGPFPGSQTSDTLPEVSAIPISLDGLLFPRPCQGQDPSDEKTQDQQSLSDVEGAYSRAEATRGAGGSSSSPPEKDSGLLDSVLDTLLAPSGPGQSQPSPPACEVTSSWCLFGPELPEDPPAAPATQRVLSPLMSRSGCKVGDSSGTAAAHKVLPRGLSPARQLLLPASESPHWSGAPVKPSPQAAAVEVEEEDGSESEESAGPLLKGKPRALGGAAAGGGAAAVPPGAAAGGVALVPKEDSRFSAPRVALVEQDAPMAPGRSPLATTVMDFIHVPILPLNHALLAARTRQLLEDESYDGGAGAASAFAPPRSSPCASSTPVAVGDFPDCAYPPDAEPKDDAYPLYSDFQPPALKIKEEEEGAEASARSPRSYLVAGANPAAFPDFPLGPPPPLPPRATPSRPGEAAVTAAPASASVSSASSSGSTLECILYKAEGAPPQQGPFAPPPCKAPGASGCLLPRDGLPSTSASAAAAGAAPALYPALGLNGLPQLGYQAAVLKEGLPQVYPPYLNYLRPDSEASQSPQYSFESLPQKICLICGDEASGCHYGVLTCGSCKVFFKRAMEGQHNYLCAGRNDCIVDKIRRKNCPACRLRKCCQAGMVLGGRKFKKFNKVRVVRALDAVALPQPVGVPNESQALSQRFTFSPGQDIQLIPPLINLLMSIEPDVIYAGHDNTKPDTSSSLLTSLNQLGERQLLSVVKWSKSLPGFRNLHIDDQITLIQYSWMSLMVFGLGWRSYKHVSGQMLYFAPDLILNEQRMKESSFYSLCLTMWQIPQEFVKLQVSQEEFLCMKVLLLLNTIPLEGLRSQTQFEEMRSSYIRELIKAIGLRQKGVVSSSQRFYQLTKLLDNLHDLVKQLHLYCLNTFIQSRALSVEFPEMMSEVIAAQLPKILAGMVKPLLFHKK
Kind of test: Activation of progesterone receptor in human T47D cells up to 1000 nM after 20 hrs by PRE-tagged luciferase reporter gene assay. It is filed as cell-based. (In general: A reporter such as luciferase makes a cellular process visible.)

Test [2] has as its target T2, Glucocorticoid receptor (Homo sapiens, UniProt P04150).
T2 sequence (P04150 whole entry): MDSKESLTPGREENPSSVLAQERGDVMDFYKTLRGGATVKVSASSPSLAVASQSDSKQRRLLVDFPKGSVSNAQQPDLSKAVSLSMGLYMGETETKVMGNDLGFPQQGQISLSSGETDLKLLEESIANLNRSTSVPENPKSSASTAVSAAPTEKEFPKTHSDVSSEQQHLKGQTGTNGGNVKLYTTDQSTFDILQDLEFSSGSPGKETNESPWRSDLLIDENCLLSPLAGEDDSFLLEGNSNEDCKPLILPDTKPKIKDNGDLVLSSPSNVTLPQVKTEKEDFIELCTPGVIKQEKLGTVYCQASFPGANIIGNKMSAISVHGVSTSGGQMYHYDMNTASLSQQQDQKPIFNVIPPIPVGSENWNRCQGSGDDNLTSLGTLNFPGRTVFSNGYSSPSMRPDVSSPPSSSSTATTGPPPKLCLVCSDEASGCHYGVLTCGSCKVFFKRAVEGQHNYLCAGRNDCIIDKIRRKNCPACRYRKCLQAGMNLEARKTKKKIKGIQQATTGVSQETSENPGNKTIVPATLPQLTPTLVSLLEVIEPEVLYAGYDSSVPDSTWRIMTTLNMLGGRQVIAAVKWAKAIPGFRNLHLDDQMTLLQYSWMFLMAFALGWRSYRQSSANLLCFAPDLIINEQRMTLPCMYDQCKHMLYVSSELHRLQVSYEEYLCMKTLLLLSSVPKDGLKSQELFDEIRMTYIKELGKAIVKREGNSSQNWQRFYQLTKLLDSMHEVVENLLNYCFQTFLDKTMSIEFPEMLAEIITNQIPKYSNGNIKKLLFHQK
The test can be described thus: Antagonist activity at glucocorticoid receptor ligand binding domain expressed in african green monkey COS7 cells co-transfected with Gal4-LBD up to 10 uM by luciferase reporter gene assay. It is filed as cell-based. To be noted: cos-7.

Test [3] addresses T3, Estrogen receptor (Homo sapiens, UniProt P03372).
T3 sequence (P03372 whole entry): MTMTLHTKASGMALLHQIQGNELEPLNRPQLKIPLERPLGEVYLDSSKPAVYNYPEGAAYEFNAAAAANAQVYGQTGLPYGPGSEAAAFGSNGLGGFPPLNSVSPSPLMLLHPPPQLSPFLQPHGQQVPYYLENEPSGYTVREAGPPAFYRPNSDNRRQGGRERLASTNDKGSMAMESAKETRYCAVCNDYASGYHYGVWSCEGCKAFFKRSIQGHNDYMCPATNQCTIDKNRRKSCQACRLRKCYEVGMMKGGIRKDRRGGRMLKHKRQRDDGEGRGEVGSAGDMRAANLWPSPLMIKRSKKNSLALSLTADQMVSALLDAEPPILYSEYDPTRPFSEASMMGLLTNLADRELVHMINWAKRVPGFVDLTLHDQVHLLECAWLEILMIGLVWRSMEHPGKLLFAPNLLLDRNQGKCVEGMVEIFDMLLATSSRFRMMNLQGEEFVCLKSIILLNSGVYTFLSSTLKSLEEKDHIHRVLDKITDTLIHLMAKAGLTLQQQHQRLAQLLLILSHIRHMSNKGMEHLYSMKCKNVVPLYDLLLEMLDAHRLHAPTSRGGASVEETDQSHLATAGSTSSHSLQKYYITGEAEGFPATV
Kind of test: Antagonist activity at estrogen receptor alpha ligand binding domain expressed in african green monkey COS7 cells co-transfected with Gal4-LBD up to 10 uM by luciferase reporter gene assay. It is filed as cell-based. To be noted: cos-7.

The target in test [4] is T1, Progesterone receptor. Kind of test: Displacement of [3H]progesterone from progesterone receptor in human T47D cells after 3 hrs by scintillation counting. The class given is cell-based. On the technique in general: In a radioligand displacement assay an active substance lowers the binding of a labelled ligand.
Test [5] concerns the target T4, Estrogen receptor (Homo sapiens) (UniProt P03372).
T4 sequence (whole entry): T3 sequence (P03372 whole entry)
The test can be described thus: Antagonist activity at estrogen receptor alpha ligand binding domain expressed in african green monkey COS7 cells co-transfected with Gal4-LBD by luciferase reporter gene assay relative to control. To be noted: COS-7. On the set-up: scale not given: the % may be the effect or the level left. The class given is cell-based.

For test [6], the target named is T5, Glucocorticoid receptor (Homo sapiens) (UniProt P04150).
T5 sequence (whole entry): T2 sequence (P04150 whole entry)
The test can be described thus: Antagonist activity at glucocorticoid receptor ligand binding domain expressed in african green monkey COS7 cells co-transfected with Gal4-LBD by luciferase reporter gene assay relative to control. It is filed as cell-based. Further details: scale not given: the % may be the effect or the level left; call rule not given here. To be noted: COS-7.

Test [7] deals with T2, Glucocorticoid receptor.
For test [8], the target named is T3, Estrogen receptor.
Test [9] deals with T1, Progesterone receptor. The test can be described thus: Displacement of progesterone from progesterone receptor in human T47D cells after 3 hrs. It is filed as cell-based.
Test [10] has as its target T6, Progesterone receptor (Homo sapiens) (UniProt P06401).
T6 sequence (whole entry): T1 sequence (P06401 whole entry)
Kind of test: Ratio of compound EC50 to progesterone EC50 for progesterone receptor in human T47D cells. The class given is cell-based.

In test [11] the target is T6, Progesterone receptor (Homo sapiens). Kind of test: Ratio of compound IC50 to progesterone IC50 for progesterone receptor in human T47D cells. The class given is cell-based.

With `CC1(C)C(=O)CC[C@]2(C)[C@@]3(C)c4[nH]c5ccccc5c4C[C@@H]3CC[C@@]12O` [LECANINDOLE B], the EC50 result at Progesterone receptor [1] is given as “Not Active”. For the same molecule, the IC50 entry on Glucocorticoid receptor [2] and on Estrogen receptor [3] was “Not Active” throughout.

The term pIC50 denotes −log10 of the IC50, conventionally taken in molar units. Regarding `CC1(C)[C@H](O)CC[C@]2(C)[C@@]3(C)c4[nH]c5ccccc5c4C[C@@H]3CC[C@@]12O` [LECANINDOLE D], the pIC50 on Progesterone receptor [4] was 7.24; against Glucocorticoid receptor [7], less than 6.00; against Estrogen receptor [8], less than 5.00; on Progesterone receptor [9] it was 8.26. In addition, the figures for the Activity in test [5] and in test [6] were 19% and 58%, respectively. The Ratio EC50 in [10] is 10. Besides, the Ratio IC50 in test [11] was found to be 10.
